According to US10670605B2, “Cysteine reactive probes and uses thereof” (The Scripps Research Institute, priority 2015, dated 2020):

Columns and labels:
Test in all cases: Competitive isoTOP-ABPP in situ (fragment-treated cells)
Format in all cases: cell-based
[1] = target: cysteines in MDA-MB-231 and Ramos cells (Homo sapiens, UniProt P61978)
[2] = target: T1, cysteines in MDA-MB-231 and Ramos cells (Homo sapiens, UniProt O95571)
T1 sequence (O95571 8-254): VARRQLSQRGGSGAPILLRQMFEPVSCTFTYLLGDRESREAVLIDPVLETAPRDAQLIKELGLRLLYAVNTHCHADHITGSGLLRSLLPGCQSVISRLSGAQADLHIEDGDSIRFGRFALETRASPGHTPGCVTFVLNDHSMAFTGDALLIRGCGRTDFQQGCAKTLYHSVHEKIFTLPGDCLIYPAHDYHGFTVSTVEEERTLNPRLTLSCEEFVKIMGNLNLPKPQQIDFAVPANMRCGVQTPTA

[3] = target: T2, cysteines in MDA-MB-231 and Ramos cells (Homo sapiens, UniProt Q96RN5)
T2 sequence (Q96RN5 1-788): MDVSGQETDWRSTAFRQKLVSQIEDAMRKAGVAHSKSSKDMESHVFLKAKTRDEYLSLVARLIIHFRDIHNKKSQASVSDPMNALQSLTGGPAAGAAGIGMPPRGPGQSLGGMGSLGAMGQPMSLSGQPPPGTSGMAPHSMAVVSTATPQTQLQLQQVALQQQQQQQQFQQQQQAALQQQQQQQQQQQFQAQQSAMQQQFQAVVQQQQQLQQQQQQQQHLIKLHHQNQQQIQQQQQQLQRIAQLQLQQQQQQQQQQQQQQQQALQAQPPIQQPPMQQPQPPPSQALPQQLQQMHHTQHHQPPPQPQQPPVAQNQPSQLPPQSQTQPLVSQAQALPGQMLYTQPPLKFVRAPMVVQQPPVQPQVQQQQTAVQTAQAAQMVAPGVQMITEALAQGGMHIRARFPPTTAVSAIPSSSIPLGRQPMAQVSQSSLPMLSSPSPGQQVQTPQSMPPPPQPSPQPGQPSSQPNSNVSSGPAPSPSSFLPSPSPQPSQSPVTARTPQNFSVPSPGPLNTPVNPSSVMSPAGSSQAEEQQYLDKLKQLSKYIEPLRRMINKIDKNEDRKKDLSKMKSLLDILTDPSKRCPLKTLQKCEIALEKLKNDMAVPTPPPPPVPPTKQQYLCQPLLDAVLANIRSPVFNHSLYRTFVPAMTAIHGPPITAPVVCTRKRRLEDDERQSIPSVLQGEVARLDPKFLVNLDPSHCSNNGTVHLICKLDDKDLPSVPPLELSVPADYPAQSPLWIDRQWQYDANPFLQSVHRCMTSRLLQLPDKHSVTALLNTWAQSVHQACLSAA

[4] = target: T3, cysteines in MDA-MB-231 and Ramos cells (Homo sapiens, UniProt Q99497)
T3 sequence (Q99497 1-189): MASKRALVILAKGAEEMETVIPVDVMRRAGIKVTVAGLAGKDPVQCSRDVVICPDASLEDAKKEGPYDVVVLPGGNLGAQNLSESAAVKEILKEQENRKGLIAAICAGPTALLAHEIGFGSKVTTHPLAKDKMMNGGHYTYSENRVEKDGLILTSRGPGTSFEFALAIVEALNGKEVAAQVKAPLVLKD

[5] = target: T4, cysteines in MDA-MB-231 and Ramos cells (Homo sapiens, UniProt Q9NQW6)
T4 sequence (Q9NQW6 1-1124): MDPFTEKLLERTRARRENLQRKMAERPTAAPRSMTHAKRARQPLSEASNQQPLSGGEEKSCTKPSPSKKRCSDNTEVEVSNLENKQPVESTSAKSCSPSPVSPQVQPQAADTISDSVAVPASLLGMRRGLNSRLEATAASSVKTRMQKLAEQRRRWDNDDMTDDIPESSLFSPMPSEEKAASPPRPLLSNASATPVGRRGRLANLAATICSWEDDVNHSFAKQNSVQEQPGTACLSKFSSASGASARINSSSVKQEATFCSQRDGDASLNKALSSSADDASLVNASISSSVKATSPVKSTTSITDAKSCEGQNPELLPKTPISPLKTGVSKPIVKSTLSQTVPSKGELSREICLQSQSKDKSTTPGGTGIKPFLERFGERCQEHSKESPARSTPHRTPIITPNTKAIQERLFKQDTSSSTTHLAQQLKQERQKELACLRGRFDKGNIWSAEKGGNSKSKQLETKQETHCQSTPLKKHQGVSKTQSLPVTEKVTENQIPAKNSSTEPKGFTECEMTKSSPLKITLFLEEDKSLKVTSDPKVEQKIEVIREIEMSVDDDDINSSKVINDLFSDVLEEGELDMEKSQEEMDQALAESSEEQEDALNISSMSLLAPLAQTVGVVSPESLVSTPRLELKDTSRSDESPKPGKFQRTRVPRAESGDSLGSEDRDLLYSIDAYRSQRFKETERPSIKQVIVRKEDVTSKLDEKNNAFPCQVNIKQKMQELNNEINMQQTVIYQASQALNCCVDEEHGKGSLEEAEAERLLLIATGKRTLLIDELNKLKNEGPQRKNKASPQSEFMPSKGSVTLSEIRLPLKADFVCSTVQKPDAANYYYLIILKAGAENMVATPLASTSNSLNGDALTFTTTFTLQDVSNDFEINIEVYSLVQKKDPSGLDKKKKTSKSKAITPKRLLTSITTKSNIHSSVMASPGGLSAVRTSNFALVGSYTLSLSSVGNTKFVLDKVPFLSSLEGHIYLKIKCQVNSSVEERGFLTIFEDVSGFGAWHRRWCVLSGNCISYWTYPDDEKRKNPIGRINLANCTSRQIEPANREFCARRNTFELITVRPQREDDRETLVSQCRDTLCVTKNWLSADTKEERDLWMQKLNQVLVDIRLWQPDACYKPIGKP

SMILES	isoTOP-ABPP ratio P61978_C132 ([1]; 200 μM, insitu, 231)	isoTOP-ABPP ratio O95571_C170 ([2]; 200 μM, insitu, 231)	isoTOP-ABPP ratio Q96RN5_C618 ([3]; 200 μM, insitu, 231)	isoTOP-ABPP ratio Q99497_C106 ([4]; 200 μM, insitu, 231)	isoTOP-ABPP ratio Q9NQW6_C712 ([5]; 200 μM, insitu, 231)	other results
CC(C)CCOCCNC(=O)CCl [compound 27]	0.9	1.1	0.8	0.9	1.0	–
COc1cc2c(cc1OC)CN(C(=O)CCl)CC2 [compound 8]	–	–	–	–	–	isoTOP-ABPP reactivity P61978_C132 HNRNPK ([1]; 200 μM, insitu, 231): 4.2; isoTOP-ABPP reactivity O95571_C170 ETHE1 ([2]; 200 μM, insitu, 231): 6.8; isoTOP-ABPP reactivity O96RN5_C618 MED15 ([3]; 200 μM, insitu, 231): 20.0; isoTOP-ABPP reactivity Q9NQW6_C712 ANLN ([5]; 200 μM, insitu, 231): 14.1
COc1ccc(C2CC(c3cccs3)=NN2C(=O)CCl)cc1 (stereo not drawn) [compound 4]	–	–	–	–	–	isoTOP-ABPP reactivity P61978_C132 HNRNPK ([1]; 100 μM in situ 231): 3.8; isoTOP-ABPP reactivity O95571_C170 ETHE1 ([2]; 100 μM in situ 231): 2.3; isoTOP-ABPP reactivity O96RN5_C618 MED15 ([3]; 100 μM in situ 231): 4.5; isoTOP-ABPP reactivity Q99497_C106 PARK7 ([4]; 100 μM in situ 231): 0.9; isoTOP-ABPP reactivity Q9NQW6_C712 ANLN ([5]; 100 μM in situ 231): 4.1
O=C(CCl)Nc1cccc2ncccc12 [compound 51]	1.2	–	2.1	1.4	–	–
COc1ccccc1OCCNC(=O)CCl [compound 28]	1.0	–	0.7	1.0	0.9	–
O=C(CCl)N1CCN(S(=O)(=O)c2ccccc2F)CC1 [compound 10]	5.6	9.0	–	1.7	11.2	isoTOP-ABPP ratio P61978_C132 ([1]; 200 μM, insitu, ramos): 1.6
CC1CCc2ccccc2N1C(=O)CCl (stereo not drawn) [compound 45]	9.3	3.1	20.0	20.0	5.9	–
Cc1ccc(C=C(C#N)C(=O)NCCN2CCOCC2)cc1 [compound 41]	0.9	1.1	–	0.6	0.7	–
COc1ccc2c(c1)CCCN2C(=O)CCl [compound 2]	–	–	–	–	–	isoTOP-ABPP reactivity P61978_C132 HNRNPK ([1]; 200 μM, insitu, 231): 5.0; isoTOP-ABPP reactivity O95571_C170 ETHE1 ([2]; 200 μM, insitu, 231): 3.8; isoTOP-ABPP reactivity O96RN5_C618 MED15 ([3]; 200 μM, insitu, 231): 6.4
C=CC(=O)Nc1cc(F)c(N2CCN(C(=O)OC(C)(C)C)CC2)c(F)c1 [compound 38]	1.0	–	1.4	1.1	1.5	–
O=C(CCl)NC(=O)NC12CC3CC(CC(C3)C1)C2 [compound 12]	7.5	6.3	20.0	3.0	16.7	–
C=CC(=O)N(Cc1cccnc1)c1cc(C(F)(F)F)cc(C(F)(F)F)c1 [compound 31]	0.9	–	0.9	0.8	0.7	isoTOP-ABPP ratio P61978_C132 ([1]; 200 μM, insitu, ramos): 1.1; isoTOP-ABPP ratio Q99497_C106 ([4]; 200 μM, insitu, ramos): 1.0
Cn1cc(S(=O)(=O)N2CCOCC2)cc1C(=O)NC(=O)CCl [compound 11]	–	–	–	–	–	isoTOP-ABPP ratio P61978_C132 ([1]; 100 μM in situ 231): 0.9; isoTOP-ABPP ratio O95571_C170 ([2]; 100 μM in situ 231): 1.2; isoTOP-ABPP ratio Q96RN5_C618 ([3]; 100 μM in situ 231): 1.0; isoTOP-ABPP ratio Q99497_C106 ([4]; 100 μM in situ 231): 1.3; isoTOP-ABPP ratio Q9NQW6_C712 ([5]; 100 μM in situ 231): 0.9
O=C(CCl)NCCc1c[nH]c2ccccc12 [compound 13]	1.1	1.2	1.0	–	1.3	isoTOP-ABPP ratio P61978_C132 ([1]; 200 μM, insitu, ramos): 1.1; isoTOP-ABPP ratio O95571_C170 ([2]; 200 μM, insitu, ramos): 1.9; isoTOP-ABPP ratio Q96RN5_C618 ([3]; 200 μM, insitu, ramos): 1.4; isoTOP-ABPP ratio Q99497_C106 ([4]; 200 μM, insitu, ramos): 3.3
O=C(CCl)N1CCN(CC(=O)N2CCOCC2)CC1 [compound 29]	–	–	–	–	–	isoTOP-ABPP ratio P61978_C132 ([1]; 200 μM, insitu, ramos): 1.2; isoTOP-ABPP ratio O95571_C170 ([2]; 200 μM, insitu, ramos): 1.5; isoTOP-ABPP ratio Q96RN5_C618 ([3]; 200 μM, insitu, ramos): 1.3
O=C(CCl)NC12CC3CC(CC(C3)C1)C2 [compound 21]	1.4	1.7	1.0	–	–	–
O=C(CCl)N1CCC(Cc2ccccc2)CC1 [compound 9]	–	–	–	–	–	isoTOP-ABPP reactivity P61978_C132 HNRNPK ([1]; 200 μM, insitu, 231): 1.4; isoTOP-ABPP reactivity O95571_C170 ETHE1 ([2]; 200 μM, insitu, 231): 2.0; isoTOP-ABPP reactivity Q9NQW6_C712 ANLN ([5]; 200 μM, insitu, 231): 3.1
